Experimental data published in paper PMC9501832 (Pharmaceutics, 2022).
pIC50: −log10 of the molar value. Read-outs that look alike come from different tables or passages of the source.

Experiments:
PDE5 = conditions: training set, supplement reference list, read-out: PDE5 IC50 Experimental, cited from earlier work
[1] = molecular target: phosphodiesterase enzyme type 5 (PDE5) (Homo sapiens, UniProt O76074); experiment: In vitro enzyme assay (Transcreener fluorescence polarization); format: biochemical; conditions: 10-dose, 3-fold serial dilution starting at 50 uM
Procedure: Tested compounds (series B, D, E and G) were tested against phosphodiesterase enzyme type 5 (PDE5) in order to investigate their inhibitory activities. The in vitro enzyme assay was conducted using Transcreener Fluorescence polarization assay to detect the reaction product GMP. The compounds were suspended in DMSO to make 10 mM stock solutions. The procedure was conducted using the following buffer system; 10 mM Tris, pH 7.5, 5 mM MgCl2, 0.01% Brij 35, 1 mM DTT and 1% DMSO. […] The tested samples were added into the enzyme by Acoustic Technology. The substrate was added and incubated for 1 h. Fluorescence polarization (FP) was measured after 90 min incubation at rt and mP was calculated. Data were analyzed based on the GMP standard curve.

Compound	melting point	pIC50 [1]	further results
CCCc1nn(C)c2c(=O)[nH]c(-c3cc(C(=O)CN4CCN(CCO)CC4)ccc3OCC)nc12 [t10, Hydroxyacetildenafil]			pIC50 (PDE5; ref [5]): 7.23
CCCc1nn(C)c2c(=S)nc(-c3cc(S(=O)(=O)N4C[C@@H](C)N[C@@H](C)C4)ccc3OCC)[nH]c12 [t15, Thioaildenafil]			pIC50 (PDE5; ref [3]): 9.22
CCCc1nn(C)c2c(=S)nc(-c3cc(S(=O)(=O)N4CCN(C)CC4)ccc3OCC)[nH]c12 [t11, Thiosildenafil]			pIC50 (PDE5; ref [5]): 9.22
CCCc1nn(C)c2c(=O)[nH]c(-c3cc(S(=O)(=O)N4CCN(C)CC4)ccc3OCC)nc12 [t1, Sildenafil]			pIC50 (PDE5; ref [1]): 8.66
CCCc1nn(C)c2c(=O)[nH]c(-c3cc(C(=O)CN4CCN(CC)CC4)ccc3OCC)nc12 [t9, Acetildenafil]			pIC50 (PDE5; ref [5]): 8.12
CCCc1nn(C)c2c(=O)[nH]c(-c3cc(S(=O)(=O)N4CCN(CCO)CC4)ccc3OCC)nc12 [t8, Hydroxyhomosildenafil]			pIC50 (PDE5; ref [5]): 8.47
CCCc1nn(C)c2c(=O)[nH]c(-c3cc(C(=O)CN4C[C@@H](C)N[C@@H](C)C4)ccc3OCC)nc12 [t17, Dimethylacetildenafil]			pIC50 (PDE5; ref [3]): 7.29
COc1ccc(CNC(=O)c2cc([N+](=O)[O-])ccc2NC(C)CO)cc1OC (centres unmarked) [t5, Benzamidenafil]			pIC50 (PDE5; ref [3]): 8.96
CCCc1nn(C)c2c(=O)[nH]c(-c3cc([N+](=O)[O-])ccc3OCC)nc12 [t16, Nitrodenafil]			pIC50 (PDE5; ref [3]): 7.17
Carbodenafil [t12]			pIC50 (PDE5; ref [6]): 8.28
CN1CC(=O)N2[C@H](c3ccc4c(c3)OCO4)c3[nH]c4ccccc4c3C[C@@H]2C1=O [t3, Tadalafil]			pIC50 (PDE5; ref [1]): 8.92
NN1CC(=O)N2[C@H](c3ccc4c(c3)OCO4)c3[nH]c4ccccc4c3C[C@@H]2C1=O [t116, Aminotadalafil]			pIC50 (PDE5; ref [5]): 8.38
COc1ccc(CN=c2[nH]c(N3CCC[C@H]3CO)ncc2C(=O)NCc2ncccn2)cc1Cl [t6, Avanafil]			pIC50 (PDE5; ref [5]): 8.28
CCCc1nn(C)c2c(=O)[nH]c(-c3cc(S(=O)(=O)N4CCN(CC)CC4)ccc3OCC)nc12 [t7, Homosildenafil]			pIC50 (PDE5; ref [5]): 8.42
CCCOc1ccc(S(=O)(=O)NCCC2CCCN2C)cc1-c1nc2c(CCC)nn(C)c2c(=O)[nH]1 (centres unmarked) [t13, Udenafil]			pIC50 (PDE5; ref [6]): 8.08

More lines, main results first:

melting point	pIC50 [1]	Compound	further results
210 to 212 °C		O=C(Cc1nc2ncccc2[nH]c1=O)NN1C(=O)CCC1=O [Compound 7a]	
240 to 242 °C	7.74	CC(=O)N1N=C(Cc2nc3ncccc3[nH]c2=O)OC1c1ccc([N+](=O)[O-])cc1 (centres unmarked) [Compound 11b]	
277 to 279 °C	7.35	O=c1[nH]c2cccnc2nc1CN1CCCCC1 [Compound 8b]	
> 300 °C		O=c1[nH]c2cccnc2nc1CNc1ccc(Cl)cc1 [Compound 8h]	
222 to 224 °C	7.33	COc1ccc(/C=N/NC(=O)Cc2nc3ncccc3[nH]c2=O)cc1 [Compound 6c]	
234 to 236 °C	7.49	O=c1[nH]c2cccnc2nc1CN/N=C/c1ccccc1 [Compound 9a]	
235 to 237 °C	7.51	COc1ccc(C2OC(Cc3nc4ncccc4[nH]c3=O)=NN2C(C)=O)cc1 (centres unmarked) [Compound 11c]	
220 to 222 °C		O=c1[nH]c2cccnc2nc1Cc1n[nH]c(=O)n1-c1ccccc1 [Compound 10a]	
284 to 286 °C		Cc1ccc(NCc2nc3ncccc3[nH]c2=O)cc1 [Compound 8g]	
229 to 231 °C		COc1ccc(C2=NNC=C3C(=O)Nc4cccnc4N32)cc1 [Compound 12d]	
234 to 236 °C	7.58	CC(=O)N1N=C(Cc2nc3ncccc3[nH]c2=O)OC1c1ccccc1 (centres unmarked) [Compound 11a]	
238 to 240 °C	7.38	O=c1[nH]c2cccnc2nc1CN/N=C/c1ccc([N+](=O)[O-])cc1 [Compound 9c]	
> 300 °C	6.86	O=c1[nH]c2cccnc2nc1CNc1ccc(Br)cc1 [Compound 8i]	
230 to 232 °C		O=C(Cc1nc2ncccc2[nH]c1=O)NNC(=O)Nc1ccc(Cl)cc1 [Compound 5b]	
256 to 258 °C	7.49	COc1ccc(/C=N/NCc2nc3ncccc3[nH]c2=O)cc1 [Compound 9d]	
262 to 263 °C	7.03	CCN(CC)Cc1nc2ncccc2[nH]c1=O [Compound 8a]	

melting point	pIC50 [1]	Compound	further results
218 to 220 °C		O=C(Cc1nc2ncccc2[nH]c1=O)NNC(=O)Nc1ccccc1 [Compound 5a]	
234 to 235 °C	7.05	O=c1[nH]c2cccnc2nc1CN1CCOCC1 [Compound 8c]	
213 to 215 °C		O=C(Cc1nc2ncccc2[nH]c1=O)NN1C(=O)C=CC1=O [Compound 7b]	
230 to 233 °C	7.53	C/C(=N\NCc1nc2ncccc2[nH]c1=O)c1ccccc1 [Compound 9e]	
292 to 293 °C		O=c1[nH]c2cccnc2nc1CN(c1ccccc1)c1ccccc1 [Compound 8j]	
211 to 213 °C		O=C(Cc1nc2ncccc2[nH]c1=O)NN1C(=O)c2ccccc2C1=O [Compound 7c]	
222 to 225 °C		O=C1Nc2cccnc2N2C1=CNN=C2c1ccc(Cl)cc1 [Compound 12b]	
222 to 224 °C		O=C1Nc2cccnc2N2C1=CNN=C2c1ccc([N+](=O)[O-])cc1 [Compound 12c]	
	7.17	O=C(Cc1nc2ncccc2[nH]c1=O)N/N=C/c1ccc([N+](=O)[O-])cc1 [Compound 6b]	
248 to 250 °C	6.99	O=c1[nH]c2cccnc2nc1CNc1ccccc1 [Compound 8d]	
219 to 221 °C		O=C1Nc2cccnc2N2C1=CNN=C2c1ccccc1 [Compound 12a]	
219 to 222 °C		O=c1[nH]c2cccnc2nc1Cc1n[nH]c(=S)n1-c1ccccc1 [Compound 10c]	
258 to 260 °C	7.68	Cc1cccc(NCc2nc3ncccc3[nH]c2=O)c1 [Compound 8f]	
237 to 239 °C	7.52	O=c1[nH]c2cccnc2nc1CN/N=C/c1ccc(Cl)cc1 [Compound 9b]	
228 to 230 °C	7.23	O=C(Cc1nc2ncccc2[nH]c1=O)N/N=C/c1ccccc1 [Compound 6a]	
234 to 236 °C		O=C(Cc1nc2ncccc2[nH]c1=O)NNC(=S)Nc1ccccc1 [Compound 5c]	
